Assays:
recombinant human PAI-1 [1] = target: T1, recombinant human PAI-1 (Homo sapiens, UniProt P05121); experiment: biochemical; conditions: read-out: Inhibition Rate of PAI-1 Activity (%)
recombinant human PAI-1 [2] = target: T1, recombinant human PAI-1; experiment: Test Example 2: Human PAI-1 Inhibitory Activity (pH 7.4 HEPES buffer, 10 minutes incubation with two-chain tPA); format: biochemical; parameters: purchased Molecular Innovations, Inc; conditions: read-out: Inhibition Rate of PAI-1 Activity (%)
Description: 0.1 M HEPES, 0.1 M NaCl. 1 mM EDTA. 0.1 % Polyethylene glycol 8,000 (Hampton Research Corporation),
2 mM Dimethyldecylphoshine oxide [Apo-10] (Fluka Corporation)

T1 sequence (P05121 24-402): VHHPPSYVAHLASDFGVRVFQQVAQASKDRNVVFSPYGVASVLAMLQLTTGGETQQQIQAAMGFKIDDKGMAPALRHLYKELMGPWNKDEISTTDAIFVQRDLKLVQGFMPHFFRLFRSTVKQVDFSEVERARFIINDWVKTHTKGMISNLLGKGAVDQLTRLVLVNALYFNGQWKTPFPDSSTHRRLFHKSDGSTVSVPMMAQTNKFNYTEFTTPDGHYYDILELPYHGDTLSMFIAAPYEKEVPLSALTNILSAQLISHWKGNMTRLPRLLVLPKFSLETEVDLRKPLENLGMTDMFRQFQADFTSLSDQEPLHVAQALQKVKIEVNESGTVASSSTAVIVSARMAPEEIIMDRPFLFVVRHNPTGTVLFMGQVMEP

| SMILES | inhibition at 5 µM (recombinant human PAI-1 [1]) [%] | inhibition at 10 µM (recombinant human PAI-1 [1]) [%] | inhibition at 25 µM (recombinant human PAI-1 [1]) [%] | inhibition at 0.1 µM (recombinant human PAI-1 [2]) [%] | inhibition at 0.3 µM (recombinant human PAI-1 [2]) [%] | inhibition at 1 µM (recombinant human PAI-1 [2]) [%] | inhibition at 3 µM (recombinant human PAI-1 [2]) [%] | inhibition at 10 µM (recombinant human PAI-1 [2]) [%] | inhibition at 25 µM (recombinant human PAI-1 [2]) [%] |
| --- | --- | --- | --- | --- | --- | --- | --- | --- | --- |
| CC(C)(C)c1ccc(CN(C(=O)C(=O)O)c2ccc(-c3ccc(OC(F)(F)F)cc3)cc2OC(F)(F)F)cc1 [Compound 151] | 35 | 80 | 90 | – | – | – | – | – | – |
| O=C(O)C(=O)N(CCCCc1ccccc1)c1ccc(N2CCCCC2)c(-c2ccc(OC(F)(F)F)cc2)c1 [Compound 247] | 93 | 99 | – | – | – | – | – | – | – |
| CCCOc1ccc(N(Cc2ccccc2)C(=O)C(=O)O)cc1-c1ccc(OC(F)(F)F)cc1 [Compound 210] | 39 | 70 | 94 | – | – | – | – | – | – |
| O=C(O)C(=O)N(Cc1ccccc1)c1c(Cl)cc(-c2ccc(OC(F)(F)F)cc2)cc1Cl [Compound 180] | 19 | 36 | 71 | – | – | – | – | – | – |
| CC(C)(C)Oc1ccc(N(CCCCc2ccccc2)C(=O)C(=O)O)cc1-c1ccc(OC(F)(F)F)cc1 [Compound 249] | 68 | 89 | – | – | – | – | – | – | – |
| CC(C)(C)c1ccc(CN(C(=O)C(=O)O)c2ccc(-c3cccc(OC(F)(F)F)c3)cc2)cc1 [Compound 200] | 64 | 89 | 92 | – | – | – | – | – | – |
| CC(C)(C)c1ccc(CN(C(=O)C(=O)O)c2ccc(-c3ccc(C(C)(C)C)cc3)cc2)cc1 [Compound 163] | 37 | 84 | > 99 | – | – | – | – | – | – |
| O=C(O)C(=O)N(Cc1ccc(Cl)cc1)c1ccc(-c2ccc(OC(F)(F)F)cc2)cc1 [Compound 124] | 22 | 49 | – | – | – | – | – | – | – |
| CC(C)(C)c1ccc(-c2ccc(N(Cc3cccc(OC(F)(F)F)c3)C(=O)C(=O)O)cc2)cc1 [Compound 203] | 69 | 91 | 97 | – | – | – | – | – | – |
| CC(C)c1ccc(Oc2cc(-c3ccc(OC(F)(F)F)cc3)ccc2/C=C/C(=O)O)cc1 [Compound 509] | – | – | – | 1 | 22 | 96 | > 99 | – | – |
| CCCCC(Oc1cc(-c2ccc(OC(F)(F)F)cc2)ccc1OCCCCc1ccc(Cl)cc1)C(=O)O (stereo not shown) [Compound 325] | – | – | – | 11 | 5 | 85 | 91 | – | – |
| CCCCCOc1ccc(Oc2ccc(OC(F)(F)F)cc2)cc1N(CCCCc1ccccc1)C(=O)C(=O)O [Compound 363] | – | – | – | 2 | 4 | 72 | > 99 | – | – |
| CC(C)(C)c1ccc(Oc2cc(-c3ccccc3OC(F)(F)F)ccc2CCC(=O)O)cc1 [Compound 467] | – | – | – | 2 | 6 | 73 | > 99 | – | – |
| CCCCCCCCCCN(C(=O)C(=O)O)c1ccc(-c2ccc(OC(F)(F)F)cc2)cc1 [Compound 669] | – | – | – | 28 | 34 | > 99 | > 99 | – | – |
| CC(C)(C)c1ccc(Cc2cc(-c3ccc(OC(F)(F)F)cc3)ccc2OCC(=O)O)cc1 [Compound 550] | – | – | – | 0 | 2 | 81 | > 99 | – | – |
| CC(C)(C)[C@H]1CC[C@@H](N(C(=O)C(=O)O)c2ccc(-c3ccc(OC(F)(F)F)cc3)cc2)CC1 [Compound 666] | – | – | – | 0 | 21 | 89 | 98 | – | – |
| CCCCC(C(=O)O)N(Cc1ccc(C(C)(C)C)cc1)c1cccc(-c2ccc(OC(F)(F)F)cc2)c1 (stereo not shown) [Compound 641] | – | – | – | 9 | 53 | 95 | 95 | – | – |
| CCCCc1ccc(-c2ccc(OCC(=O)O)c(Oc3ccc(C(C)(C)C)cc3)c2)cc1 [Compound 443] | – | – | – | 7 | 8 | 76 | > 99 | – | – |
| CCCCCOc1ccc(-c2ccc(OC(F)(F)F)cc2)cc1N(CCCCc1ccccc1)CC(=O)O [Compound 640] | – | – | – | 0 | 19 | 92 | 92 | – | – |
| CC(C)(C)c1ccc(Oc2cc(-c3cc(Cl)ccc3Cl)ccc2OCC(=O)O)cc1 [Compound 455] | – | – | – | 9 | 20 | 93 | 99 | – | – |
| CCCCC(Oc1ccc(-c2ccc(OC(F)(F)F)cc2)cc1OCc1ccc(C(C)(C)C)cc1)C(=O)O (stereo not shown) [Compound 310] | – | – | – | 11 | 19 | 72 | 96 | – | – |
| CCCN(CC(=O)O)c1cc(-c2ccc(OC(F)(F)F)cc2)ccc1Oc1ccc(C(C)(C)C)cc1 [Compound 435] | – | – | – | 12 | 29 | 81 | 98 | – | – |

| SMILES | inhibition at 5 µM (recombinant human PAI-1 [1]) [%] | inhibition at 10 µM (recombinant human PAI-1 [1]) [%] | inhibition at 25 µM (recombinant human PAI-1 [1]) [%] | inhibition at 0.1 µM (recombinant human PAI-1 [2]) [%] | inhibition at 0.3 µM (recombinant human PAI-1 [2]) [%] | inhibition at 1 µM (recombinant human PAI-1 [2]) [%] | inhibition at 3 µM (recombinant human PAI-1 [2]) [%] | inhibition at 10 µM (recombinant human PAI-1 [2]) [%] | inhibition at 25 µM (recombinant human PAI-1 [2]) [%] |
| --- | --- | --- | --- | --- | --- | --- | --- | --- | --- |
| CC(C)(C)c1ccc(Oc2cc(Nc3ccc(OC(F)(F)F)cc3)ccc2CCC(=O)O)cc1 [Compound 532] | – | – | – | 12 | 59 | > 99 | > 99 | – | – |
| Cc1cc(C)cc(Oc2cc(-c3ccc(C(C)(C)C)cc3)ccc2/C=C/C(=O)O)c1 [Compound 494] | – | – | – | 9 | 24 | 87 | 92 | – | – |
| O=C(O)C(=O)N(CCCCc1ccccc1)c1cc(-c2ccc(OC(F)(F)F)cc2)ccc1OC1CCCC1 [Compound 658] | – | – | – | 9 | 20 | 97 | > 99 | – | – |
| CCCCCOc1ccc(-c2cccc(C)c2)cc1N(CCCCc1ccccc1)C(=O)C(=O)O [Compound 379] | – | – | – | 14 | 17 | 78 | 92 | – | – |
| CCCCCOc1ccc(-c2ccc(OC(F)(F)F)cc2)cc1N(CCCCC)C(=O)C(=O)O [Compound 366] | – | – | – | 8 | 24 | 46 | 96 | – | – |
| O=C(O)CCc1ccc(-c2ccc(OC(F)(F)F)cc2)cc1Oc1ccc2ccccc2c1 [Compound 476] | – | – | – | 0 | 3 | 65 | > 99 | – | – |
| CC(C)c1ccc(-c2ccc(CCC(=O)O)c(Oc3ccc(C(C)(C)C)cc3)c2)cc1 [Compound 519] | – | – | – | 1 | 19 | > 99 | > 99 | – | – |
| COc1ccc(-c2ccc(OC(F)(F)F)cc2)cc1N(CCCCc1ccccc1)C(=O)C(=O)O [Compound 651] | – | – | – | 0 | 0 | 15 | 74 | – | – |
| CCCCCCCCCOc1ccc(-c2ccc(OC(F)(F)F)cc2)cc1N(CCCCc1ccccc1)C(=O)C(=O)O [Compound 364] | – | – | – | 41 | 94 | 97 | 92 | – | – |
| CCCCCCC(Oc1cc(-c2ccc(OC(F)(F)F)cc2)ccc1Oc1ccc(OC(F)(F)F)cc1)C(=O)O (stereo not shown) [Compound 326] | – | – | – | 0 | 28 | 94 | 94 | – | – |
| CCCCC(CC(=O)O)c1cc(-c2ccc(OC(F)(F)F)cc2)ccc1Oc1ccc(C(C)(C)C)cc1 (stereo not shown) [Compound 422] | – | – | – | 12 | 24 | 72 | > 99 | – | – |
| O=C(O)CCCCCCOc1ccc(-c2ccc(OC(F)(F)F)cc2)cc1N(CCCCc1ccccc1)C(=O)C(=O)O [Compound 633] | – | – | – | 11 | 11 | 39 | 61 | – | – |
| CC(C)(C)c1ccc(Oc2cc(-c3cc(Cl)ccc3Cl)ccc2/C=C/C(=O)O)cc1 [Compound 483] | – | – | – | 0 | 8 | 76 | > 99 | – | – |
| O=C(O)/C=C/c1ccc(-c2ccc(OC(F)(F)F)cc2)cc1OC(c1ccccc1)c1ccccc1 [Compound 506] | – | – | – | 2 | 9 | 78 | > 99 | – | – |
| O=C(O)C(=O)N(CCCCc1ccccc1)c1ccc(N2CCCC2)c(-c2ccc(OC(F)(F)F)cc2)c1 [Compound 673] | – | – | – | 0 | 15 | > 99 | > 99 | – | – |
| CCCCCCOc1ccc(-c2ccc(OC(F)(F)F)cc2)cc1OC(CCCCCC)C(=O)O (stereo not shown) [Compound 429] | – | – | – | 7 | 9 | 93 | 95 | – | – |
| CCCCc1ccc(Oc2cc(-c3ccc(OC(F)(F)F)cc3)ccc2OCC(=O)O)cc1 [Compound 481] | – | – | – | 19 | 16 | 70 | > 99 | – | – |
| CN(CC(=O)O)c1ccc(-c2ccc(OC(F)(F)F)cc2)cc1Oc1ccc(C(C)(C)C)cc1 [Compound 534] | – | – | – | 13 | 21 | 84 | > 99 | – | – |
| CC(C)(C)c1ccc(Oc2cc(-c3ccc(OC(F)(F)F)cc3)ccc2NCC(=O)O)cc1 [Compound 442] | – | – | – | 1 | 4 | 83 | > 99 | – | – |
| O=C(O)c1cc(-c2ccc(OC(F)(F)F)cc2)ccc1OCc1ccccc1 [Compound 401] | – | – | – | – | – | – | 15 | 17 | 53 |
| CCCCCOc1cc(-c2ccc(OC(F)(F)F)cc2)ccc1CN(C(=O)C(=O)O)c1ccc(C(C)(C)C)cc1 [Compound 648] | – | – | – | 4 | 23 | 86 | 89 | – | – |
| CCCCCOc1ccc(-c2ccc(OC(F)(F)F)cc2)cc1N(CCCSc1ccccc1)C(=O)C(=O)O [Compound 357] | – | – | – | 0 | 2 | 69 | > 99 | – | – |

Source: patent EP2272817A1, “PAI-1 INHIBITOR” (Institute of Medicinal Molecular Design, Inc., priority 2008, dated 2009)
